# Measured values: patent publication US10988477B2 (Merck Patent GmbH, priority 2018, dated 2021)
# Molecular target: GCN2 kinase (Homo sapiens, UniProt Q9P2K8)
# Experiment: GCN2 enzyme inhibition assay (Transcreener ADP2 fluorescence polarization)
# Format: biochemical
# Conditions: Enzyme activity for compounds of Formula IV; Ki(app), 280 μM ATP, 25° C.
# Summary of the method: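 Run at 25 °C in 25 mM Tris-HCl pH 7.5, 50 mM NaCl, 10 mM MgCl2, 1 mM DTT with 4 nM GCN2, 280 μM ATP and 200 μM (RS)7 peptide; compound (0–8 μM final) preincubated 10 min, reaction 1 h. ADP read by antibody/tracer FP; IC50 and Ki(app) from tight-binding fit.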
# Sequence of GCN2 kinase (Q9P2K8 whole entry): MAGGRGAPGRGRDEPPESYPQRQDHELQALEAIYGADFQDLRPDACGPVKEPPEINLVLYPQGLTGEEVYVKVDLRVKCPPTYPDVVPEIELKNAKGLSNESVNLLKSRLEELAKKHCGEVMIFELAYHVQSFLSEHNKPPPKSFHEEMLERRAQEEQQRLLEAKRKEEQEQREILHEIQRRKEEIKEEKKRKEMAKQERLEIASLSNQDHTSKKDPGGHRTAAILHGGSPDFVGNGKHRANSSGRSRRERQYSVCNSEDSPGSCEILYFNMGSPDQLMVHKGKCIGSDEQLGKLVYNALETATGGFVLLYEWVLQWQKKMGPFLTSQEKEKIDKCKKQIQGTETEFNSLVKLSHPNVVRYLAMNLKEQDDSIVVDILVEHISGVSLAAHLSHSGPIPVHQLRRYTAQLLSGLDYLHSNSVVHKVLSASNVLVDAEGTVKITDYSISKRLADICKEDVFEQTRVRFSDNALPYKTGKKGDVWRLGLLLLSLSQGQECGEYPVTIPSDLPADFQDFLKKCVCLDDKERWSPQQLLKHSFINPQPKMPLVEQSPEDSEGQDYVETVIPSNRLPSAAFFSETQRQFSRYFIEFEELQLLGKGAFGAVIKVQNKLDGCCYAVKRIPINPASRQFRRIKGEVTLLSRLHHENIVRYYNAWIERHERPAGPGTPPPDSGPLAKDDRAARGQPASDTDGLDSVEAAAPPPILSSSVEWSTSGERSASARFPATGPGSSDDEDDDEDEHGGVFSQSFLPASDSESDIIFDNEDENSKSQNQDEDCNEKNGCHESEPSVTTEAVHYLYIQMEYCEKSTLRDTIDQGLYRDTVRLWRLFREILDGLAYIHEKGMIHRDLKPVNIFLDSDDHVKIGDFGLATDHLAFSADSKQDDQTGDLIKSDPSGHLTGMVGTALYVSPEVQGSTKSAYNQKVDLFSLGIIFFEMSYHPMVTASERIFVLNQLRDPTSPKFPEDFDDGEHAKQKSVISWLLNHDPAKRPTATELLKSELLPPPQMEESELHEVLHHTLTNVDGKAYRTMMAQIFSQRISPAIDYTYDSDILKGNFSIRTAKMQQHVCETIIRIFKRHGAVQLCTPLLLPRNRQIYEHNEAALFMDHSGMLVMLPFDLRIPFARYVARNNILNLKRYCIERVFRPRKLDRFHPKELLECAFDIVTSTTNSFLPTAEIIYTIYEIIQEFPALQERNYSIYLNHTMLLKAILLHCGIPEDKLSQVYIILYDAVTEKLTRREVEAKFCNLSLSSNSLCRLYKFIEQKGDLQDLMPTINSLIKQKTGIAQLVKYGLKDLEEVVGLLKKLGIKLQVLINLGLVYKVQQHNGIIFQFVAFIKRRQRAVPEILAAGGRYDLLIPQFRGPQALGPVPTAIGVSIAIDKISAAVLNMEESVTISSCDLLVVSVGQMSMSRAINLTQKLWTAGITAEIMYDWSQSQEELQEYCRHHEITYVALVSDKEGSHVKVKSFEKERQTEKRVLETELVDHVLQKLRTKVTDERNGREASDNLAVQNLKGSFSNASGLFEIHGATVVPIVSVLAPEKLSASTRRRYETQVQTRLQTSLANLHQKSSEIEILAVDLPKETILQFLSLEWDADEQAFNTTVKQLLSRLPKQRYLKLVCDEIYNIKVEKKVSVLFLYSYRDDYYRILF
row,SMILES,Ki [nM]
1,"O=C1NCCC12CCCN(c1ccnc(-c3cnc4cnc(C(F)(F)F)cn34)n1)C2 (stereo not shown) [IV-542, 7-(2-(6-(Trifluoromethyl)imidazo[1,2-a]pyrazin-3-yl)pyrimidin-4-yl)-2,7-diazaspiro[4.5]decan-1-one]",100 to 1000
2,"NC(=O)c1cn2c(-c3nccc(N4CC(=O)N5CCCCC5C4)n3)cnc2cn1 (stereo not shown) [IV-263, 3-(4-(4-Oxooctahydro-2H-pyrido[1,2-a]pyrazin-2-yl)pyrimidin-2-yl)imidazo[1,2-a]pyrazine-6-carboxamide]",100 to 1000
3,"C[C@@H]1CN(c2ccnc(-c3cnc4cnc(C(F)(F)F)cn34)n2)C[C@@H](c2c[nH]cn2)O1 (racemic) [IV-381, Trans-2-(1H-Imidazol-4-yl)-6-methyl-4-(2-(6-(trifluoromethyl)imidazo[1,2-a]pyrazin-3-yl)pyrimidin-4-yl)morpholine]",10 to 100
4,"NC(=O)C1CN(c2ccnc(-c3cnc4cnc(C(F)(F)F)cn34)n2)CCN1 (stereo not shown) [IV-595, 4-(2-(6-(Trifluoromethyl)imidazo[1,2-a]pyrazin-3-yl)pyrimidin-4-yl)piperazine-2-carboxamide]",100 to 1000
5,"COCC1CCCCN(c2ccnc(-c3cnc4cnc(C(F)(F)F)cn34)n2)C1 (stereo not shown) [IV-509, 3-(4-(3-(Methoxymethyl)azepan-1-yl)pyrimidin-2-yl)-6-(trifluoromethyl)imidazo[1,2-a]pyrazine]",100 to 1000
6,"NC(C1CCCN(c2ccnc(-c3cnc4cnc(C(F)(F)F)cn34)n2)C1)C(F)(F)F (stereo not shown) [IV-503, 2,2,2-Trifluoro-1-(1-(2-(6-(trifluoromethyl)imidazo[1,2-a]pyrazin-3-yl)pyrimidin-4-yl)piperidin-3-yl)ethan-1-amine]",100 to 1000
7,"FC(F)(F)c1cn2c(-c3nccc(N4CCC(c5cn[nH]c5)C4)n3)cnc2cn1 (single isomer, unassigned) [IV-541, 3-(4-(3-(1H-Pyrazol-4-yl)pyrrolidin-1-yl)pyrimidin-2-yl)-6-(trifluoromethyl)imidazo[1,2-a]pyrazine]",10 to 100
8,"NC(=O)CN1CCCN(c2ccnc(-c3cnc4cnc(C(F)(F)F)cn34)n2)CC1 [IV-566, 2-(4-(2-(6-(Trifluoromethyl)imidazo[1,2-a]pyrazin-3-yl)pyrimidin-4-yl)-1,4-diazepan-1-yl)acetamide]",100 to 1000
9,"NC(=O)c1cn2c(-c3nccc(N4CCN5CCCCC5C4)n3)cnc2cn1 (stereo not shown) [IV-265, 3-(4-(Octahydro-2H-pyrido[1,2-a]pyrazin-2-yl)pyrimidin-2-yl)imidazo[1,2-a]pyrazine-6-carboxamide]",100 to 1000
10,"COCC1CN(c2ccnc(-c3cnc4cnc(C(F)(F)F)cn34)n2)CC(C)O1 (stereo not shown) [IV-587, 2-(Methoxymethyl)-6-methyl-4-(2-(6-(trifluoromethyl)imidazo[1,2-a]pyrazin-3-yl)pyrimidin-4-yl)morpholine]",100 to 1000
11,"CC1CCCCN1c1ccnc(-c2cnc3cnc(C(F)(F)F)cn23)n1 (stereo not shown) [IV-518, 3-(4-(2-Methylpiperidin-1-yl)pyrimidin-2-yl)-6-(trifluoromethyl)imidazo[1,2-a]pyrazine]",10 to 100
12,"FC(F)c1cn2c(-c3nccc(-c4cnn(C5CCOC5)c4)n3)cnc2cn1 (stereo not shown) [IV-153, 6-(Difluoromethyl)-3-(4-(1-(tetrahydrofuran-3-yl)-1H-pyrazol-4-yl)pyrimidin-2-yl)imidazo[1,2-a]pyrazine]",100 to 1000
13,O=C(N[C@H]1CCCN(c2ccnc(-c3cnc4cnc(C(F)(F)F)cn34)n2)C1)c1c[nH]cn1 [IV-751],> 1000
14,FC(F)(F)c1cn2c(-c3nccc(N4CCc5sccc5C4)n3)cnc2cn1 [IV-749],> 1000
15,"CC1C(c2cn[nH]c2)OCCN1c1ccnc(-c2cnc3cnc(C#N)cn23)n1 (single isomer, unassigned) [IV-291, 3-(4-(3-Methyl-2-(1H-pyrazol-4-yl)morpholino)pyrimidin-2-yl)imidazo[1,2-a]pyrazine-6-carbonitrile]",100 to 1000
16,"CC1(C)COCCN1c1ccnc(-c2cnc3cnc(C(F)(F)F)cn23)n1 [IV-532, 3,3-Dimethyl-4-(2-(6-(trifluoromethyl)imidazo[1,2-a]pyrazin-3-yl)pyrimidin-4-yl)morpholine]",100 to 1000
17,O=C(N[C@H]1CCCN(c2ccnc(-c3cnc4cnc(C(F)(F)F)cn34)n2)C1)c1cccnc1F [IV-734],> 1000
18,"CC(=O)Nc1ccc(-c2cn3c(-c4nccc(N5CCN(C(C)=O)CC5)n4)cnc3cn2)cc1 [IV-298, N-(4-(3-(4-(4-Acetylpiperazin-1-yl)pyrimidin-2-yl)imidazo[1,2-a]pyrazin-6-yl)phenyl)acetamide]",100 to 1000
19,"COc1cnc(N2CCN(C(C)=O)CC2)nc1-c1cnc2cnc(C(N)=O)cn12 [IV-701, 3-(2-(4-acetylpiperazin-1-yl)-5-methoxypyrimidin-4-yl)imidazo[1,2-a]pyrazine-6-carboxamide]",100 to 1000
20,"CCOc1cccc(-c2cn3c(-c4nccc(N5CCN(C(C)=O)CC5)n4)cnc3cn2)c1 [IV-299, 1-(4-(2-(6-(3-Ethoxyphenyl)imidazo[1,2-a]pyrazin-3-yl)pyrimidin-4-yl)piperazin-1-yl)ethan-1-one]",10 to 100
21,"C[C@H]1[C@H](c2cn[nH]c2)OCCN1c1ccnc(-c2cnc3cnc(Cl)cn23)n1 (racemic) [IV-236, Trans-4-(2-(6-Chloroimidazo[1,2-a]pyrazin-3-yl)pyrimidin-4-yl)-3-methyl-2-(1H-pyrazol-4-yl)morpholine]",10 to 100
22,"C[C@H]1NCCN(c2ccnc(-c3cnc4cnc(Br)cn34)n2)[C@H]1c1cn[nH]c1 (racemic) [IV-342, Cis-6-Bromo-3-(4-(3-methyl-2-(1H-pyrazol-4-yl)piperazin-1-yl)pyrimidin-2-yl)imidazo[1,2-a]pyrazine]",100 to 1000
23,"Cn1nc(C2CCCN(c3ccnc(-c4cnc5cnc(C(F)(F)F)cn45)n3)C2)cc1CCO (stereo not shown) [IV-662, 2-(1-Methyl-3-(1-(2-(6-(trifluoromethyl)imidazo[1,2-a]pyrazin-3-yl)pyrimidin-4-yl)piperidin-3-yl)-1H-pyrazol-5-yl)ethan-1-ol]",100 to 1000
24,"FC(F)(F)c1cn2c(-c3nccc(N4CCCC(n5ccnc5)C4)n3)cnc2cn1 (stereo not shown) [IV-255, 3-(4-(3-(1H-Imidazol-1-yl)piperidin-1-yl)pyrimidin-2-yl)-6-(trifluoromethyl)imidazo[1,2-a]pyrazine]",10 to 100
25,"CC1NCCN(c2ccnc(-c3cnc4cnc(C(F)F)cn34)n2)C1c1cn[nH]c1 (stereo not shown) [IV-455, 6-(Difluoromethyl)-3-(4-(3-methyl-2-(1H-pyrazol-4-yl)piperazin-1-yl)pyrimidin-2-yl)imidazo[1,2-a]pyrazine]",100 to 1000
26,N[C@H]1CCCN(c2ccnc(-c3cnc4cnc(C(F)(F)F)cn34)n2)C1 [IV-736],> 1000

# Same assay, conditions: compounds of Formula II; 280 μM ATP, 4 nM GCN2 kinase
row,SMILES,Ki [nM]
1,"CC1CC(N=S(C)(C)=O)CN(c2cc(-c3cnc4ccc(C#N)nn34)ncn2)C1 (stereo not shown) [II-703, 3-(6-(3-((Dimethyl(oxo)-λ^6-sulfanylidene)amino)-5-methylpiperidin-1-yl)pyrimidin-4-yl)imidazo[1,2-b]pyridazine-6-carbonitrile]",< 10
2,"CC1C(NS(C)(=O)=O)CCCN1c1cc(-c2cnc3ccc(C(F)F)nn23)ncn1 (stereo not shown) [II-601, N-(1-(6-(6-(Difluoromethyl)imidazo[1,2-b]pyridazin-3-yl)pyrimidin-4-yl)-2-methylpiperidin-3-yl)methanesulfonamide]",< 10
3,"CC1C(N=S(C)(C)=O)CCCN1c1cc(-c2cnc3ccc(C(F)F)nn23)ncn1 (single isomer, unassigned) [II-594, ((1-(6-(6-(Difluoromethyl)imidazo[1,2-b]pyridazin-3-yl)pyrimidin-4-yl)-2-methylpiperidin-3-yl)imino)dimethyl-λ^6-sulfanone]",10 to 1000
4,"CS(=N)(=O)NC[C@@H]1CN(c2cc(-c3cnc4ccc(C(F)F)nn34)ncn2)CCO1 (stereo partly drawn) [II-23, N—(((S)-4-(6-(6-(Difluoromethyl)imidazo[1,2-b]pyridazin-3-yl)pyrimidin-4-yl)morpholin-2-yl)methyl)methanesulfonimidamide]",10 to 1000
5,"CS(=N)(=O)CC1CCCN(c2cc(-c3cnc4ccc(C(F)F)nn34)ncn2)C1 (single isomer, unassigned) [II-638, ((1-(6-(6-(Difluoromethyl)imidazo[1,2-b]pyridazin-3-yl)pyrimidin-4-yl)piperidin-3-yl)methyl)(imino)(methyl)-λ^6-sulfanone]",10 to 1000
6,Cc1nnc([C@@H]2CN(c3cc(-c4cnc5ccc(C(F)(F)F)nn45)ccn3)C[C@H](C)O2)o1 [II-747],10 to 1000
7,"[2H]C([2H])(NS(C)(=O)=O)C1CCCN(c2cc(-c3cnc4ccc(C(F)F)nn34)ncn2)C1 (stereo not shown) [II-524, N-((1-(6-(6-(Difluoromethyl)imidazo[1,2-b]pyridazin-3-yl)pyrimidin-4-yl)piperidin-3-yl)methyl-d2)methanesulfonamide]",< 10
8,"CNS(=O)(=O)CC1CCCN(c2cc(-c3cnc4ccc(C(F)F)nn34)ncn2)C1 (stereo not shown) [II-236, 1-(1-(6-(6-(Difluoromethyl)imidazo[1,2-b]pyridazin-3-yl)pyrimidin-4-yl)piperidin-3-yl)-N-methylmethanesulfonamide]",10 to 1000
9,"CC1CC(CNS(C)(=O)=O)CN(c2cc(-c3cnc4ccc(C(F)F)nn34)ncn2)C1C (stereo not shown) [II-591, N-((1-(6-(6-(Difluoromethyl)imidazo[1,2-b]pyridazin-3-yl)pyrimidin-4-yl)-5,6-dimethylpiperidin-3-yl)methyl)methanesulfonamide]",< 10
10,"FC(F)c1ccc2ncc(-c3ccnc(N4C[C@@H]5C[C@H]4CN5)c3)n2n1 [II-165, 3-(2-((1S,4S)-2,5-Diazabicyclo[2.2.1]heptan-2-yl)pyridin-4-yl)-6-(difluoromethyl)imidazo[1,2-b]pyridazine]",10 to 1000

# Same assay, conditions: compounds of Formula IV; 280 μM ATP, 4 nM GCN2 kinase
row,SMILES,IC50 [nM]
1,"Cc1n[nH]cc1[C@H]1C[C@H](C)CN(c2nccc(-c3cnc4cnc(C(F)(F)F)cn34)n2)C1 [IV-755, 3-(2-((3S,5R)-3-methyl-5-(3-methyl-1H-pyrazol-4-yl)piperidin-1-yl)pyrimidin-4-yl)-6-(trifluoromethyl)imidazo[1,2-a]pyrazine]",10 to 1000
